Test results from the supplement of paper PMC9663587.

How the values were obtained:
Assay in all cases: area over the GR curve, 72 h; higher = more effect;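 also: Dye Drop or Deep Dye Drop imaging of viable cells in 384-well plates (Hoechst nuclei, LIVE/DEAD dye), nine half-log doses, GR normalized to DMSO controls and time-zero plates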
AU565 = system: AU565
BT549 = system: BT549
EFM19 = system: EFM19
HCC1569 = system: HCC1569
HCC1954 = system: HCC1954
HCC70 = system: HCC70
MDAMB231 = system: MDAMB231
MDAMB415 = system: MDAMB415
MDAMB453 = system: MDAMB453
MDAMB468 = system: MDAMB468
PDX1328 = system: PDX1328
SKBR3 = system: SKBR3

SMILES | area over the GR curve (AU565) [GR] | area over the GR curve (BT549) [GR] | area over the GR curve (EFM19) [GR] | area over the GR curve (HCC1569) [GR] | area over the GR curve (HCC1954) [GR] | area over the GR curve (HCC70) [GR] | area over the GR curve (MDAMB231) [GR] | area over the GR curve (MDAMB415) [GR] | area over the GR curve (MDAMB453) [GR] | area over the GR curve (MDAMB468) [GR] | area over the GR curve (PDX1328) [GR] | area over the GR curve (SKBR3) [GR] | area over the GR curve (BT549; main component drawn) [GR] | area over the GR curve (HCC1954; main component drawn) [GR] | area over the GR curve (HCC70; main component drawn) [GR] | area over the GR curve (MDAMB231; main component drawn) [GR] | area over the GR curve (MDAMB453; main component drawn) [GR] | area over the GR curve (MDAMB468; main component drawn) [GR] | area over the GR curve (PDX1328; main component drawn) [GR] | area over the GR curve (SKBR3; main component drawn) [GR]
CNc1nc(-c2ccc3c(N)n[nH]c3c2)cc(N2C[C@@H](C(=O)NC3CCCCC3)CC[C@H]2C)n1 (max 10 µM) | 0.223 | 0.0789 | 0.293 | 0.114 | 0.0806 | 0.288 | 0.149 | 0.295 | 0.266 | 0.0821 | 0.136 | 0.318 |  |  |  |  |  |  |  | 
CCOc1cc2ncc(C#N)c(Nc3ccc(OCc4ccccn4)c(Cl)c3)c2cc1NC(=O)/C=C/CN(C)C [Neratinib/HKI272] (max 3.162 µM) | 1.15 | 0.0779 | 0.0236 | 0.397 | 0.429 | 0.317 | 0.105 | 0.0594 | 0.553 | 0.386 | 0.314 | 0.891 |  |  |  |  |  |  |  | 
Cc1cc(C(C)Nc2ccccc2)c2nc(N3CCOCC3)cc(=O)n2c1 (stereo not drawn) [TGX221] (max 10 µM) | 0.103 | 0.0568 | 0.0431 | 0.0644 | -0.0656 | 0.467 | 0.0141 | 0.224 | -0.0643 | 0.103 | 0.0318 | -0.0125 |  |  |  |  |  |  |  | 
CN(C)C/C=C/C(=O)Nc1ccc(C(=O)Nc2cccc(Nc3cc(-c4c[nH]c5ccccc45)ncn3)c2)cc1 [THZ-P1-2] (max 10 µM) | 0.194 | 0.124 | 0.131 | 0.0873 | 0.114 | 0.326 | 0.163 | 0.683 | 0.533 | 0.344 | 0.0529 | 0.154 |  |  |  |  |  |  |  | 
Cc1c(N)nc([C@H](CC(N)=O)NC[C@H](N)C(N)=O)nc1C(=O)N[C@H](C(=O)N[C@H](C)[C@@H](O)[C@H](C)C(=O)N[C@H](C(=O)NCCc1nc(-c2nc(C(=O)NCCC[S+](C)C)cs2)cs1)[C@@H](C)O)[C@@H](OC1OC(CO)C(O)C(O)C1OC1OC(CO)C(O)C(OC(N)=O)C1O)c1cnc[nH]1 (stereo partly drawn) [Bleomycin] (max 10 µM) |  |  |  |  |  |  |  |  |  |  |  |  | 0.467 | 0.617 | 0.419 | 0.132 | 0.198 | 0.325 | 0.199 | 0.259
NC1(C(=O)N[C@@H](CCO)c2ccc(Cl)cc2)CCN(c2nc[nH]c3nccc2-3)CC1 [AZD5363] (max 10 µM) | 0.205 | 0.211 | 0.304 | 0.433 | 0.23 | 0.661 | -0.0246 | 0.855 | 0.234 | 0.135 | 0.0959 | 0.23 |  |  |  |  |  |  |  | 
COc1cc2nccc(Oc3ccc(NC(=O)C4(C(=O)Nc5ccc(F)cc5)CC4)cc3)c2cc1OC [Cabozantinib] (max 10 µM) | -0.0067 | 0.0035 | -0.0111 | 0.0157 | -0.0867 | 0.255 | 0.141 | -0.0499 | -0.0455 | 0.0415 | 0.0918 | -0.0595 |  |  |  |  |  |  |  | 
CN1CCN(CCOc2cc(OC3CCOCC3)c3c(Nc4c(Cl)ccc5c4OCO5)ncnc3c2)CC1 [Saracatinib/AZD0530] (max 10 µM) | 0.119 | 0.0348 | 0.149 | 0.188 | 0.191 | 0.573 | 0.269 | 0.208 | 0.0491 | 0.139 | 0.31 | -0.0324 |  |  |  |  |  |  |  | 
CN(C)C/C=C/C(=O)Nc1ccc(C(=O)N2CCC[C@@H](Nc3ncc(Cl)c(-c4c[nH]c5ccccc45)n3)C2)cc1 [THZ531] (max 1 µM) | 0.42 | 0.174 | 0.167 | 0.312 | 0.143 | 0.462 | 0.205 | 0.434 | 0.537 | 0.404 | 0.418 | 0.545 |  |  |  |  |  |  |  | 
O=C(CCCCCCC(=O)Nc1ccccc1)NO [Vorinostat] (max 10 µM) | 0.327 | 0.189 | 0.162 | 0.163 | 0.234 | 0.38 | 0.282 | 0.172 | 0.263 | 0.217 | 0.36 | 0.345 |  |  |  |  |  |  |  | 
CO[C@H]1C[C@@H]2CC[C@@H](C)[C@@](O)(O2)C(=O)C(=O)N2CCCC[C@H]2C(=O)O[C@H]([C@H](C)C[C@@H]2CC[C@@H](OCCO)[C@H](OC)C2)CC(=O)[C@H](C)/C=C(\C)[C@@H](O)[C@@H](OC)C(=O)[C@H](C)C[C@H](C)/C=C/C=C/C=C/1C [Everolimus] (max 10 µM) | 0.553 | 0.439 | 0.731 | 0.349 | 0.653 | 0.476 | 0.225 | 0.807 | 0.888 | 0.429 | 0.642 | 0.794 |  |  |  |  |  |  |  | 
CN(C)C(=O)c1cc2cnc(Nc3ccc(N4CCNCC4)cn3)nc2n1C1CCCC1 [LEE011/Ribociclib] (max 10 µM) | 0.403 | 0.0102 | 0.315 | -0.108 | 0.309 | -0.0535 | 0.365 | 0.613 | 0.555 | 0.0162 | 0.406 | 0.34 |  |  |  |  |  |  |  | 
CCNC(=O)c1noc(-c2cc(C(C)C)c(O)cc2O)c1-c1ccc(CN2CCOCC2)cc1 [Luminespib/NVP-AUY922] (max 1 µM) | 0.689 | 0.612 | 0.35 | 0.513 | 0.601 | 0.732 | 0.645 | 0.613 | 0.848 | 0.648 | 0.751 | 0.714 |  |  |  |  |  |  |  | 
COc1ccc2c(c1)[C@]1(C[C@H]1c1ccc3c(/C=C/c4ccc(CN5C[C@@H](C)O[C@@H](C)C5)cc4)n[nH]c3c1)C(=O)N2 | 0.725 | 0.889 | 0.397 | 0.435 | 0.995 | 1.11 | 0.765 | 0.36 | 0.537 | 0.838 | 0.553 | 0.711 |  |  |  |  |  |  |  | 
CCc1cncnc1N1CCN(Cc2nc3ccc(C(F)(F)F)cc3[nH]2)CC1 (max 10 µM) | 0.0402 | -0.0132 | -0.0563 | 0.0337 | -0.0456 | -0.077 | 0.0105 | 0.0085 | -0.0403 | 0.118 | 0.0319 | 0.0204 |  |  |  |  |  |  |  | 
CC(C)Nc1cc(-c2c[nH]c(C(=O)N[C@H](CO)c3cccc(Cl)c3)c2)c(Cl)cn1 [BVD523] (max 10 µM) | 0.061 | 0.109 | 0.0226 | -0.026 | 0.242 | 0.296 | 0.232 | 0.121 | 0.0704 | 0.267 | 0.102 | 0.124 |  |  |  |  |  |  |  | 
